Values joined by “and” are separate entries in the source; they are usually repeats but may differ in a detail not shown here. Equal values may be shown once. Read-outs that look alike come from different tables or passages of the source.
How the values were obtained:
[1] = molecular target: T1, N-terminal Nano Luciferase/GAK fusion (NL-GAK) in HEK293 cells (Homo sapiens, UniProt O14976); assay: GAK nanoBRET cellular target engagement assay; conditions: for IC50: NanoBRET GAK IC50, HEK293 cells, 8-point dose response, average of 2 experiments
T1 sequence (O14976 1-1311): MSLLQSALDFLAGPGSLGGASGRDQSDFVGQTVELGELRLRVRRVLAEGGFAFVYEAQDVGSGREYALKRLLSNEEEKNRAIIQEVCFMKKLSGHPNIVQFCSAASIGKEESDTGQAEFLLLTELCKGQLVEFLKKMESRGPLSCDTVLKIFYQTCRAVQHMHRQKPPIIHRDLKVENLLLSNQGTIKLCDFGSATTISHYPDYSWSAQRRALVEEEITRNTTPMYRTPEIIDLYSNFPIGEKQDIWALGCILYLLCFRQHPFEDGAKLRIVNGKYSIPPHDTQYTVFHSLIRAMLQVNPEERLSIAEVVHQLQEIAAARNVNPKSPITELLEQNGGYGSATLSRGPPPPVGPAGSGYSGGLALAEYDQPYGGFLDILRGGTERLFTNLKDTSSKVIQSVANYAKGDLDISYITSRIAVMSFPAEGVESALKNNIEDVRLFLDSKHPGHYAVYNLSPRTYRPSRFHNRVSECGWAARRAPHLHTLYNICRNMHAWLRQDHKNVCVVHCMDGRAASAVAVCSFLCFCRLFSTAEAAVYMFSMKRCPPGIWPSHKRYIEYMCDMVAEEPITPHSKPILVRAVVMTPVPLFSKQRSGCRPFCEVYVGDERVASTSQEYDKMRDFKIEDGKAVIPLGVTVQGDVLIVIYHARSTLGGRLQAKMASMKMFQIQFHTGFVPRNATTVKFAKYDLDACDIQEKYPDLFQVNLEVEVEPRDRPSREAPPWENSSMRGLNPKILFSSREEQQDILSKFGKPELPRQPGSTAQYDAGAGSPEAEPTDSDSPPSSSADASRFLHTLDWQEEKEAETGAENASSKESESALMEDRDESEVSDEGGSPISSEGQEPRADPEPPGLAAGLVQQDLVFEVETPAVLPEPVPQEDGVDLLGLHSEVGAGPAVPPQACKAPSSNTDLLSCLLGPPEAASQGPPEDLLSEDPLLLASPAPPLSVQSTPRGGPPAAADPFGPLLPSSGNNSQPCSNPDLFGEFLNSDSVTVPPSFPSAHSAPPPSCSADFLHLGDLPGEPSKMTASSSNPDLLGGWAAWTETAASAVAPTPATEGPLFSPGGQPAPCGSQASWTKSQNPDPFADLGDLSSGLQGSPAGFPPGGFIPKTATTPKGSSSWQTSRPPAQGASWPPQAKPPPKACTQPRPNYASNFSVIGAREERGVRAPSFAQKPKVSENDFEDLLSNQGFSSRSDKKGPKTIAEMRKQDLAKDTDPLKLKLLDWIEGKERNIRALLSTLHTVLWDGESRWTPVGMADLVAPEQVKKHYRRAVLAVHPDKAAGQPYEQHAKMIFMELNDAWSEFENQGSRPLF

[2] = molecular target: T2, GAK kinase domain (12-347) (Homo sapiens, UniProt O14976); assay: TR-FRET ligand binding displacement assay, GAK; conditions: for fold drop in GAK potency: relative to 1; for NAK selectivity (ratio of GAK Ki and Ki of nearest NAK family member): selectivity against the nearest NAK family member
T2 sequence (O14976 12-347): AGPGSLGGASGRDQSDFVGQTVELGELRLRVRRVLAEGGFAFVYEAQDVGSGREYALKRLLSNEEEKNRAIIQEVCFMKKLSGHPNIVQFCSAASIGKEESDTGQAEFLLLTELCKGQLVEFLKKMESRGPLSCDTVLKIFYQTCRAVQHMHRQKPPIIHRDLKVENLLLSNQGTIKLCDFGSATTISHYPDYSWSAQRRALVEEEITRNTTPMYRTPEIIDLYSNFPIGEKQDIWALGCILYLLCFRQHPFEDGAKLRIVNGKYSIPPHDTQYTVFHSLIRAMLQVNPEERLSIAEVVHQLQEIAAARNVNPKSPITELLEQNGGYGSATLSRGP

[3] = molecular target: AAK1 kinase domain (31-396) (Homo sapiens, UniProt Q2M2I8); assay: TR-FRET ligand binding displacement assay, AAK1
[4] = molecular target: BMP2K kinase domain (38-345) (Homo sapiens, UniProt Q9NSY1); assay: TR-FRET ligand binding displacement assay, BMP2K
[5] = molecular target: STK16 kinase domain (13-305) (Homo sapiens, UniProt O75716); assay: TR-FRET ligand binding displacement assay, STK16
[6] = read-out: Binding displacement assay Ki BMP2K, TR-FRET, 16-point dose response

Chain of AAK1 kinase domain (31-396) (Q2M2I8 31-396): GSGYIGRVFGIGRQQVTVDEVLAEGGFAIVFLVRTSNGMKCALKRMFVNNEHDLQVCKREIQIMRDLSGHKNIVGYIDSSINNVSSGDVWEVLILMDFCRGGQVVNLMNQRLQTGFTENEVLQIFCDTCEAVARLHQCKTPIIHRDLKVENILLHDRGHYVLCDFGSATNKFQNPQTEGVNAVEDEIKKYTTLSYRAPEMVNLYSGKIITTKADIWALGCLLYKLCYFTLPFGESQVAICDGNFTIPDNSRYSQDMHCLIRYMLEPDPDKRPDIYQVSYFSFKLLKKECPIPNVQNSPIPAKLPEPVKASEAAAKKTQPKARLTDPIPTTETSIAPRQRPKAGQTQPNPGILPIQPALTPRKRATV
Chain of STK16 kinase domain (13-305) (O75716 13-305): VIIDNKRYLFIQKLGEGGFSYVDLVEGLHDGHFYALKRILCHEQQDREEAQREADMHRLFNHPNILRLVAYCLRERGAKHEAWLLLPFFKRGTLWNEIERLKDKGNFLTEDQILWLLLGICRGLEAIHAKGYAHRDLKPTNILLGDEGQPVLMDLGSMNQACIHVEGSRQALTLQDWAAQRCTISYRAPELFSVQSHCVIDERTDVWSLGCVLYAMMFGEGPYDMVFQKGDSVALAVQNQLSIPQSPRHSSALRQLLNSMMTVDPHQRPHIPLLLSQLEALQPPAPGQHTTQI
Chain of BMP2K kinase domain (38-345) (Q9NSY1 38-345): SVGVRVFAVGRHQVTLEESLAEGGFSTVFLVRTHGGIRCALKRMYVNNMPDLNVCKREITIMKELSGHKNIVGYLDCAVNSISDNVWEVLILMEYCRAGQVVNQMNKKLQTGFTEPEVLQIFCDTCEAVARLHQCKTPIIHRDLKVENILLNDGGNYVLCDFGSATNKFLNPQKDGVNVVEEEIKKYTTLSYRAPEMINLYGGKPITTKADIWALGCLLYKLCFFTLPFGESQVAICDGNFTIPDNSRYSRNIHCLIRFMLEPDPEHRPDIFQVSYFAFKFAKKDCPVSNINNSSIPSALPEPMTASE

Compound	NAK selectivity (ratio of GAK Ki and Ki of nearest NAK family member) [2]	Ki [3] [µM]	Ki [4] [µM]	Ki [5] [µM]	Ki [2] [µM]	also measured
COc1cc(Nc2ccnc3ccc(C#N)cc23)cc(OC)c1OC [Compound 46, 4-((3,4,5-Trimethoxyphenyl)amino)quinoline-6-carbonitrile]	–	–	–	–	–	IC50 [1]: ~0.35 µM and 0.35 µM
6,7-Dimethoxy-N-(3,4,5-trimethoxyphenyl)quinolin-4-amine [Compound 57]	–	–	–	–	–	Ki [4, 6]: 19 µM
COc1cc(Nc2ccnc3cc(C(F)(F)F)ccc23)cc(OC)c1OC [Compound 51, 7-(Trifluoromethyl)-N-(3,4,5-trimethoxyphenyl)quinolin-4-amine]	15000	–	–	–	–	–
COc1ccc2nccc(Nc3cc(OC)c(OC)c(OC)c3)c2c1 [Compound 48, 6-Methoxy-N-(3,4,5-trimethoxyphenyl)quinolin-4-amine]	–	> 100	> 100	> 100	–	–
CC(C)(C)Oc1ccc(Nc2ccnc3ccc(C(F)(F)F)cc23)cc1 [Compound 39, N-(4-(tert-Butoxy)phenyl)-6-(trifluoromethyl)quinolin-4-amine]	–	–	–	–	–	range of affinity across all four NAK family kinases ([2]; GAK, AAK1, BMP2K, STK16): ≤ 8 fold
COc1cc(Nc2ncnc3ccc(C(F)(F)F)cc23)cc(OC)c1OC [Compound 13, 6-(Trifluoromethyl)-N-(3,4,5-trimethoxyphenyl)quinazolin-4-amine]	73	–	–	–	–	–
COc1ccc(OC)c(Nc2ccnc3ccc(C(F)(F)F)cc23)c1 [Compound 7, N-(2,5-Dimethoxyphenyl)-6-(trifluoromethyl)quinolin-4-amine]	420	80	> 100	58	0.14	–
COc1cc(Nc2ccnc3ccc(S(C)(=O)=O)cc23)cc(OC)c1OC [Compound 47, 6-(Methylsulfonyl)-N-(3,4,5-trimethoxyphenyl)quinolin-4-amine]	–	–	> 100	–	–	–
COc1ccc(Nc2ccnc3ccc(C(F)(F)F)cc23)c(OC)c1 [Compound 6, N-(2,4-Dimethoxyphenyl)-6-(trifluoromethyl)quinolin-4-amine]	81	71	> 100	70	0.86	–
CS(=O)(=O)c1cccc(Nc2ccnc3ccc(C(F)(F)F)cc23)c1 [Compound 37, N-(3-(Methylsulfonyl)phenyl)-6-(trifluoromethyl)quinolin-4-amine]	–	–	–	–	–	STK16 affinity relative to GAK [5]: ≤ 2 fold
COc1cc(Nc2ncnc3ccc(C(F)(F)F)cc23)cc(OC)c1 [Compound 14, N-(3,5-Dimethoxyphenyl)-6-(trifluoromethyl)quinazolin-4-amine]	26	–	–	–	–	Ki ([3]; read-out: Binding displacement assay Ki AAK1, TR-FRET, 16-point dose response): > 100 µM; Ki [4, 6]: > 100 µM; Ki ([5]; read-out: Binding displacement assay Ki STK16, TR-FRET, 16-point dose response): 8 µM
COc1cc(Nc2ccnc3ccc(C(F)(F)F)cc23)cc(OC)c1OC [Compound 1, 6-(Trifluoromethyl)-N-(3,4,5-trimethoxyphenyl)quinolin-4-amine]	–	54	> 100	17	–	–

Further lines, with some results ahead:

NAK selectivity (ratio of GAK Ki and Ki of nearest NAK family member) [2]	Ki [3] [µM]	Ki [4] [µM]	Ki [5] [µM]	Ki [2] [µM]	Compound	also measured
>2500	> 100	> 100	> 100	–	COc1cc(Nc2ccnc3ccccc23)cc(OC)c1OC [Compound 41, N-(3,4,5-Trimethoxyphenyl)quinolin-4-amine]	IC50 [1]: 0.78 µM; fold decrease in cellular potency ([1]; nanoBRET, relative to 1): 4 fold; fold drop in GAK potency [2]: 10 fold
9300	–	> 100	–	–	COc1cc(Nc2ccnc3cc(C#N)ccc23)cc(OC)c1OC [Compound 52, 4-((3,4,5-Trimethoxyphenyl)amino)quinoline-7-carbonitrile]	–
–	–	11	–	–	COc1ccccc1Nc1ccnc2ccc(C(F)(F)F)cc12 [Compound 10, N-(2-Methoxyphenyl)-6-(trifluoromethyl)quinolin-4-amine]	–
–	0.26	0.68	1.5	0.4	COc1cc2nccc(Nc3cccc(C(C)=O)c3)c2cc1OC [Compound 56, 1-(3-((6,7-dimethoxyquinolin-4-yl)amino)phenyl)ethan-1-one]	fold reduction in GAK activity ([2]; relative to 49): 100 fold
22000	58	> 100	> 100	–	COc1ccc2c(Nc3cc(OC)c(OC)c(OC)c3)ccnc2c1 [Compound 50, 7-Methoxy-N-(3,4,5-trimethoxyphenyl)quinolin-4-amine]	–
26	56	75	19	0.73	COc1ccc(Nc2ccnc3ccc(C(F)(F)F)cc23)cc1 [Compound 8, N-(4-Methoxyphenyl)-6-(trifluoromethyl)quinolin-4-amine]	fold drop in GAK potency [2]: 100 fold
–	> 100	> 100	–	0.0081	COc1cc(Nc2ccnc3ccc(C(C)(C)C)cc23)cc(OC)c1OC [Compound 45, 6-(tert-Butyl)-N-(3,4,5-trimethoxyphenyl)quinolin-4-amine]	IC50 [1]: 0.33 µM
–	44	> 100	> 100	–	COc1cc(Nc2ccnc3cc(F)ccc23)cc(OC)c1OC [Compound 43, 7-Fluoro-N-(3,4,5-trimethoxyphenyl)quinolin-4-amine]	–
–	83	> 100	> 100	–	COc1cc(Nc2ccnc3ccc(F)cc23)cc(OC)c1OC [Compound 42, 6-Fluoro-N-(3,4,5-trimethoxyphenyl)quinolin-4-amine]	–
1.5	–	> 100	–	–	COc1ccc(Nc2ncnc3ccc(C(F)(F)F)cc23)cc1 [Compound 15, N-(4-Methoxyphenyl)-6-(trifluoromethyl)quinazolin-4-amine]	–
420	24	44	24	0.058	COc1ccc(Nc2ccnc3ccc(C(F)(F)F)cc23)cc1OC [Compound 5, N-(3,4-Dimethoxyphenyl)-6-(trifluoromethyl)quinolin-4-amine]	fold drop in GAK potency [2]: 10 fold
260	0.9	2.4	19	0.0035	C#Cc1cccc(Nc2ccnc3cc(OC)c(OC)cc23)c1 [Compound 55, N-(3-Ethynylphenyl)-6,7-dimethoxyquinolin-4-amine]	–
640	34	85	52	0.054	COc1cc(Nc2ccnc3ccc(C(F)(F)F)cc23)cc(OC)c1 [Compound 4, N-(3,5-Dimethoxyphenyl)-6-(trifluoromethyl)quinolin-4-amine]	fold drop in GAK potency [2]: 10 fold
14	–	56	–	–	FC(F)(F)c1ccc2nccc(Nc3ccc4c(c3)OCCO4)c2c1 [Compound 12, N-(2,3-Dihydrobenzo[b][1,4]dioxin-6-yl)-6-(trifluoromethyl)quinolin-4-amine]	–

Reference: article PMC5914168 (ChemMedChem, 2017)
